{"source": "patent US8802597B2", "about": "“Herbicidal pyrimidines” (E I du Pont de Nemours and Company, priority 2003, dated 2014)", "test_in_all_cases": "Test C pre/postemergence", "format_in_all_cases": "in vivo", "key": {"[1]": {"test_system": "Surinam grass (Brachiaria decumbens)", "settings": "Preemergence, scale 0 to 100, 0 no effect, 100 complete control", "in_short": "(§1)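 Greenhouse pot test: seeds treated preemergence, or plants at 2–18 cm (1- to 4-leaf stage) treated postemergence, with compound in non-phytotoxic solvent plus surfactant. Visual rating versus untreated controls after 12–14 days, scale 0 (no effect) to 100 (complete control); dash means not tested.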"}, "[2]": {"test_system": "bermudagrass (Cynodon dactylon)", "settings": "Preemergence", "in_short": "as §1"}, "[3]": {"test_system": "cocklebur (Xanthium strumarium)", "settings": "Preemergence", "in_short": "as §1"}, "[4]": {"test_system": "common (oilseed) sunflower (Helianthus annuus)", "settings": "Preemergence, scale 0 to 100, 0 no effect, 100 complete control", "in_short": "as §1"}, "[5]": {"test_system": "common ragweed (Ambrosia elatior)", "settings": "Preemergence, scale 0 to 100, 0 no effect, 100 complete control", "in_short": "as §1"}, "corn (Zea mays)": {"test_system": "corn (Zea mays)", "settings": "Preemergence", "in_short": "as §1"}, "[6]": {"test_system": "eastern black nightshade (Solanum ptycanthum)", "settings": "Preemergence, scale 0 to 100, 0 no effect, 100 complete control", "in_short": "as §1"}, "[7]": {"test_system": "johnsongrass (Sorghum halepense)", "settings": "Preemergence", "in_short": "as §1"}, "kochia (Kochia scoparia)": {"test_system": "kochia (Kochia scoparia)", "settings": "Preemergence", "in_short": "as §1"}, "[8]": {"test_system": "morningglory (Ipomoea coccinea)", "settings": "Preemergence", "in_short": "as §1"}, "[9]": {"test_system": "pigweed (Amaranthus retroflexus)", "settings": "Preemergence, scale 0 to 100, 0 no effect, 100 complete control", "in_short": "as §1"}, "[10]": {"test_system": "woolly cupgrass (Eriochloa villosa)", "settings": "Preemergence", "in_short": "as §1"}, "[11]": {"settings": "16 g ai/ha, scale 0 to 100, 0 no effect, 100 complete control"}, "[12]": {"settings": "31 g ai/ha, scale 0 to 100, 0 no effect, 100 complete control"}, "[13]": {"settings": "62 g ai/ha, scale 0 to 100, 0 no effect, 100 complete control"}}, "data": [{"smiles": "CCCOC(=O)c1nc(C2CC2)nc(N)c1Cl", "note": "[Compound 75]", "values": [{"measurement": "Plant response rating, Surinam Grass", "setting": "[1]; 16 g ai/ha", "result": 0}, {"measurement": "Plant response rating, Surinam Grass", "setting": "[1]; 31 g ai/ha", "result": 0}, {"measurement": "Plant response rating, Surinam Grass", "setting": "[1]; 62 g ai/ha", "result": 55}, {"measurement": "Plant response rating, Bermudagrass", "setting": "[2]; [11]", "result": 0}, {"measurement": "Plant response rating, Bermudagrass", "setting": "[2]; [12]", "result": 0}, {"measurement": "Plant response rating, Bermudagrass", "setting": "[2]; [13]", "result": 0}, {"measurement": "Plant response rating, Bermudagrass", "setting": "[2]; 125 g ai/ha, scale 0 to 100", "result": 20}, {"measurement": "Plant response rating, Cocklebur", "setting": "[3]; [11]", "result": 55}, {"measurement": "Plant response rating, Cocklebur", "setting": "[3]; [12]", "result": 90}, {"measurement": "Plant response rating, Cocklebur", "setting": "[3]; [13]", "result": 95}, {"measurement": "Plant response rating, Cocklebur", "setting": "[3]; 125 g ai/ha, scale 0 to 100", "result": 100}, {"measurement": "Plant response rating, Sunflower", "setting": "[4]; 16 g ai/ha", "result": 50}, {"measurement": "Plant response rating, Sunflower", "setting": "[4]; 31 g ai/ha", "result": 70}, {"measurement": "Plant response rating, Sunflower", "setting": "[4]; 62 g ai/ha", "result": 100}, {"measurement": "Plant response rating, Ragweed", "setting": "[5]; 16 g ai/ha", "result": 20}, {"measurement": "Plant response rating, Ragweed", "setting": "[5]; 31 g ai/ha", "result": 70}, {"measurement": "Plant response rating, Ragweed", "setting": "[5]; 62 g ai/ha", "result": 80}, {"measurement": "Plant response rating, Ragweed", "setting": "[5]", "result": 90}, {"measurement": "Plant response rating, Corn", "setting": "corn (Zea mays); [12]", "result": 0}, {"measurement": "Plant response rating, Corn", "setting": "corn (Zea mays); [13]", "result": 30}, {"measurement": "Plant response rating, Corn", "setting": "corn (Zea mays); 125 g ai/ha, scale 0 to 100", "result": 65}, {"measurement": "Plant response rating, Nightshade", "setting": "[6]; 16 g ai/ha", "result": 0}, {"measurement": "Plant response rating, Nightshade", "setting": "[6]; 31 g ai/ha", "result": 50}, {"measurement": "Plant response rating, Nightshade", "setting": "[6]; 62 g ai/ha", "result": 70}, {"measurement": "Plant response rating, Nightshade", "setting": "[6]", "result": 100}, {"measurement": "Plant response rating, Johnsongrass", "setting": "[7]; [11]", "result": 0}, {"measurement": "Plant response rating, Johnsongrass", "setting": "[7]; [12]", "result": 0}, {"measurement": "Plant response rating, Johnsongrass", "setting": "[7]; [13]", "result": 50}, {"measurement": "Plant response rating, Johnsongrass", "setting": "[7]; 125 g ai/ha, scale 0 to 100", "result": 55}, {"measurement": "Plant response rating, Kochia", "setting": "kochia (Kochia scoparia); [11]", "result": 70}, {"measurement": "Plant response rating, Kochia", "setting": "kochia (Kochia scoparia); [12]", "result": 80}, {"measurement": "Plant response rating, Kochia", "setting": "kochia (Kochia scoparia); [13]", "result": 100}, {"measurement": "Plant response rating, Kochia", "setting": "kochia (Kochia scoparia); 125 g ai/ha, scale 0 to 100", "result": 100}, {"measurement": "Plant response rating, Morningglory", "setting": "[8]; [11]", "result": 50}, {"measurement": "Plant response rating, Morningglory", "setting": "[8]; [12]", "result": 90}, {"measurement": "Plant response rating, Morningglory", "setting": "[8]; [13]", "result": 95}, {"measurement": "Plant response rating, Morningglory", "setting": "[8]; 125 g ai/ha, scale 0 to 100", "result": 100}, {"measurement": "Plant response rating, Pigweed", "setting": "[9]; 16 g ai/ha", "result": 70}, {"measurement": "Plant response rating, Pigweed", "setting": "[9]; 31 g ai/ha", "result": 75}, {"measurement": "Plant response rating, Pigweed", "setting": "[9]; 62 g ai/ha", "result": 80}, {"measurement": "Plant response rating, Cupgrass, Woolly", "setting": "[10]; [11]", "result": 0}, {"measurement": "Plant response rating, Cupgrass, Woolly", "setting": "[10]; [12]", "result": 0}, {"measurement": "Plant response rating, Cupgrass, Woolly", "setting": "[10]; [13]", "result": 60}, {"measurement": "Plant response rating, Cupgrass, Woolly", "setting": "[10]; 125 g ai/ha, scale 0 to 100", "result": 60}]}]}
